Data taken from patent publication US8354424B2, “Method of treating actinic keratosis” (Medicis Pharmaceutical Corporation, priority 2005, dated 2013).

Tested on: actinic keratosis lesions
Assay: Randomized, double-blind study, eight-week treatment period, topical cream on actinic keratosis lesions on the head
Type: in vivo, human
Conditions: formulation with about 0.3 wt-% compound, twice per week, about 8 weeks, compared to other formulations or regimens
Procedure: A randomized, double-blind study was performed to evaluate single and multi-weekly doses of the formulations prepared above topically applied to actinic keratosis lesions on the head.
Otherwise healthy white (n=280) subjects (15% female, 85% male) ranging in ages 38 to 89 years of age (median age of 66.5), inclusive, with actinic keratosis lesions on the head were enrolled in the study. […] The actinic keratosis lesions areas were on the scalp (36%) and face (64%).
The study included an eight-week treatment period followed by an eight-week post-treatment period. […]
Subjects completed interval visits at treatment initiation, 1, 2, 4, and 8 weeks after treatment was initiated and at four and eight-weeks after the end of treatment. Subjects were monitored for erythema and other treatment site conditions during the entire 16 weeks of the study. Erythema, as assessed by study investigators, was defined as intense, moderate, mild, or no redness of the skin at the treatment site and given an intensity score of severe, moderate, mild, or none, respectively.
At the eight-week post-treatment visit, the treatment area was clinically evaluated for actinic keratosis lesions. Efficacy was measured as complete clearance of actinic keratosis lesions and partial clearance of actinic keratosis lesions at the eight-week post-treatment visit. […]

With `Cc1nc2c(N)nc3cccnc3c2n1CC(C)C` [2-methyl-1-(2-methylpropyl)-1H-imidazo[4,5-c][1,5]naphthyridin-4-amine] the side effects was “a low level of side effects”.
